# According to US6469028B1, “Synthesis and use of retinoid compounds having negative hormone and/or anatgonist activities” (Allergan, Inc., priority 1995, dated 2002):
# Experiments:
# [1] = test system: retinal pigment epithelium (RPE) cells; assay: Example 19: proliferation of primary retinal pigment epithelium cultures; format: cell-based, human
# Description: Primary cultures of human retinal pigment epithelium (RPE) were established according to the method described by Campochiaro et al. in Invest. Opthal & Vis. Sci. 32:65 (1991). 5×10^4 cells were plated in 16-mm wells of 24-well multiwell plates in DMEM (Gibco) containing 5% FBS. […] Cells were fed with fresh media containing the appropriate concentrations of these compounds every two days for a total of five days of treatment. Cells were removed from the plates by gentle digestion with trypsin and the number of cells was counted with an electronic cell counter.
# AGN 193109 was tested for its ability to potentiate the anti-proliferative effect of 13-cis retinoic acid (13-cis RA) in primary RPE cultures using conditions and techniques to measure RPE cell proliferation described above. […] More particularly, 13-cis RA is useful in the treatment of several disease states, including acne (Peck et al. N. Engl. J. Med. 300:329 (1977); Jones et al. Br. J. Dermatol. 108:333 (1980)), and squamous cell carcinoma of the skin and cervix in combination treatment with interferon 2α (Lippman et al. J. Natl. Cancer Inst. 84:241 (1992); Moore et al. Seminars in Hematology 31:31 (1994)).
# We next tested the ability of AGN 193109 to potentiate the activities of other nuclear receptor hormones in primary RPE cell cultures. Dexamethasone, a synthetic glucocorticoid receptor agonist, is one member of a class of compounds that have been used clinically for their potent anti-inflammatory and immunosuppressive properties. Thyroid hormone (T3; […]) is a natural thyroid hormone receptor agonist used primarily for hormone replacement therapy in the treatment of hypothyroidism.
# RAR-γ-VP-16 = RAR-γ-VP-16 activity at the ΔMTV-TREp-Luc reporter; format: cell-based
# Description: We have also obtained results which support conclusions identical to those presented under Example 11 by employing RAR-γ-VP-16 and expression constructs and the ΔMTV-TREp-Luc reporter plasmid instead of the RAR-γ-VP-16 and ER-RXR-α expression constructs in combination with the ERE-tk-Luc reporter plasmid. […] Therefore, AGN 193109 repressed RAR-γ-VP-16 activity when this chimeric receptor was directly bound to a retinoic acid receptor response element instead of indirectly bound to an estrogen response element in the promoter region of the reporter plasmid. […] Instead, the critical feature embodied by an experimental system useful for identifying retinoid negative hormones involves detecting the ability of a compound to repress the activity of an RAR engineered to contain a constitutive transcription activation domain.
# rabbits = assay: Example 24: rabbit model of proliferative vitreoretinopathy (PVR); format: in vivo
# [2] = Example 3: recovery from preexisting retinoid toxicity (body weight); format: in vivo, mice
# Description: Groups of these same mice (n=5) were then treated topically either with vehicle or AGN 193109 in vehicle (4 ml/kg) daily for 3 consecutive days beginning on day 3. Mice were weighed on days 1-5 and on day 8. Body weights are expressed as the mean±SD. Means were compared statistically using an unpaired, two-tailed t-test. Differences were considered significant at P<0.05.
# [3] = Example 4: retinoid-induced hypertriglyceridemia (serum triglycerides); format: in vivo, rats
# Description: Male Fischer rats (6-7 weeks old, n=5) were treated by intragastric intubation with corn oil (vehicle), AGN 191659, AGN 193109 or a combination of AGN 191659 and AGN 193109. AGN 191659 and AGN 193109 were given as fine suspensions in corn oil.
# Serum was separated from blood by low speed centrifugation. Total serum triglycerides (triglycerides plus glycerol) were measured with a standard spectrophotometric endpoint assay available commercially as a kit and adapted to a 96-well plate format. Serum triglyceride levels are expressed as the mean±SD. Means were compared statistically by one-way analysis of variance followed by Dunnett's test if significant differences were found. Differences were considered significant at P<0.05.
# [4] = test system: cultured cervical carcinoma cells; assay: Example 23: cultured cervical carcinoma cells from a patient biopsy; format: cell-based; details: 10^−10 to 10^−6 M
# Description: A patient presenting with an advanced cervical carcinoma is first identified. A cervical biopsy is obtained according to methods that will be familiar to one having ordinary skill in the art. Cells from the explanted tumor are propagated in tissue culture according to standard techniques to provide cell numbers sufficient to allow division into three sample groups. Culture conditions described by Agarwal et al. in Cancer Res. 54:2108 (1994) are employed for this purpose. The first group is reserved as a control and receives vehicle alone (ethanol). The second group is treated with the RAR agonist retinoic acid at a concentration of from 10^−10 to 10^−6 M. The third group is treated with AGN 193109 at doses ranging from 10^−10 to 10^−6 M. Cells are fed with fresh growth medium daily and are provided with the retinoids described above as appropriate for each sample group. Cells are counted after three days using an electric cell counter.
# [5] = topical AGN 191183 0.13 mg/kg/d days 1-2, then topical AGN 193109 days 3-5, mean±SD
compound,measurement,setting,value
"Cc1ccc(C2=CCC(C)(C)c3ccc(C#Cc4ccc(C(=O)O)cc4)cc32)cc1 [Compound 60, 4-[(5,6-dihydro-5,5-dimethyl-8-(4-methylphenyl)-2-naphthalenyl)ethynyl]benzoic acid]",enhancement of the antiproliferative activity of ATRA,[1]; 10^−10 M ATRA with 10^−7 M AGN 193109 equals 10^−8 M ATRA alone,approximately 100 fold
same,potency of 13-cis RA in repression of RPE cell proliferation,[1]; AGN 193109 10^−8 or 10^−6M with 13-cis RA 10^−12 to 10^−6M,dramatically increased the potency of 13-cis RA
same,growth rate of the RPE cells,"[1]; AGN 193109 alone, 10^−10 to 10^−6 M",did not substantially alter the growth rate of the RPE cells
same,RPE cell proliferation,[1]; dexamethasone 10^−11 to 10^−6M with 10^−8 or 10^−6M AGN 193109,repressed RPE cell proliferation to an extent that approximated the inhibition caused by treatment with ATRA
same,RPE cell proliferation,[1]; thyroid hormone 10^−11 to 10^−6M with AGN 193109 10^−8 or 10^−6M,inhibited RPE cell proliferation in a thyroid hormone dependent manner
same,RAR-γ-VP-16 activity at the ΔMTV-TREp-Luc reporter,RAR-γ-VP-16,inhibited
same,frequency and severity of tractional retinal detachment,rabbits; AGN 193109 100 μg + retinoic acid 10 μg intravitreal,significantly reduced frequency and severity of retinal detachment
same,incidence and severity of retinal detachment,"rabbits; second study, AGN 193109 100 μg + thyroid hormone 100 μg",significantly reduced incidence and severity of retinal detachment
same,retinal detachment compared with control rabbits,"rabbits; second study, single agent 100 μg intravitreal",does not inhibit retinal detachment
same,body weight relative to vehicle treatment,"[2]; after AGN 191183-induced weight loss, t-test, P<0.05",significantly increased body weight relative to vehicle treatment on days 4 and 5
same,Body Weight (g) DAY 1,[2]; [5],23.9 ± 1.0 g
same,Body Weight (g) DAY 2,[2]; [5],23.5 ± 1.2 g
same,Body Weight (g) DAY 3,[2]; [5],21.4 ± 0.6 g
same,Body Weight (g) DAY 4,[2]; [5],22.2 ± 0.7 g
same,Body Weight (g) DAY 5,[2]; [5],22.8 ± 0.8 g
same,Body Weight (g) DAY 8,[2]; [5],25.0 ± 1.1 g
same,serum triglycerides versus control,[3]; AGN 193109 with AGN 191659 at molar ratios of 1:1 and 5:1,reduced serum triglycerides to levels that were not significantly different from control
same,Serum Triglycerides,"[3]; group B: AGN 193109 19.6 mg/kg oral alone, male Fischer rats",52.4 ± 6.3 mg/dL
same,Serum Triglycerides,[3]; group D: AGN 193109 3.9 mg/kg + AGN 191659 3.7 mg/kg oral,55.7 ± 14.7 mg/dL
same,Serum Triglycerides,[3]; group E: AGN 193109 19.6 mg/kg + AGN 191659 3.7 mg/kg oral,72.7 ± 8.9 mg/dL
same,cell number after three days,[4],dose-dependent decrease in cell number
